Experimental data as given in PMC10481364 (The Journal of Biological Chemistry, 2023).
“Also recorded” adds a separate entry of the source.

What was measured:
FMND/CYP2D6 = format: binding, human
CYP2A6 = biological target: T1, CYP2A6 (Homo sapiens, UniProt P11509); assay: UV-visible spectral ligand binding assay, isolated CYP2A6; conditions: difference spectra
T1 sequence (P11509 with tags, fused parts or gaps): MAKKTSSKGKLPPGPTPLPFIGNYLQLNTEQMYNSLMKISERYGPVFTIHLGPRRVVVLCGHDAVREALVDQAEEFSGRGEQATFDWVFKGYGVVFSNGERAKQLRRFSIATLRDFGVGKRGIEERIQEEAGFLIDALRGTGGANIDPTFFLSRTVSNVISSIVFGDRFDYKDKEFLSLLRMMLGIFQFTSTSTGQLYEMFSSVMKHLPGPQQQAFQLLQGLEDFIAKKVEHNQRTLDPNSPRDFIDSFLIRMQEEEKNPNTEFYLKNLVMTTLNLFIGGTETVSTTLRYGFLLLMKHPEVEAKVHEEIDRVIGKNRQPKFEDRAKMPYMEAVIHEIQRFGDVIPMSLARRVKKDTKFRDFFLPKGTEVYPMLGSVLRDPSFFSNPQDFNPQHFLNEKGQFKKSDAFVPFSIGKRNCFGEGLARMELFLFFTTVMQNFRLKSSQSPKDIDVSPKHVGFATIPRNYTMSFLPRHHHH

FMND/CYP2A6 = biological target: T2, FMND/CYP2A6 (Homo sapiens, UniProt P11509); format: binding
T2 sequence (P11509 with tags, fused parts or gaps): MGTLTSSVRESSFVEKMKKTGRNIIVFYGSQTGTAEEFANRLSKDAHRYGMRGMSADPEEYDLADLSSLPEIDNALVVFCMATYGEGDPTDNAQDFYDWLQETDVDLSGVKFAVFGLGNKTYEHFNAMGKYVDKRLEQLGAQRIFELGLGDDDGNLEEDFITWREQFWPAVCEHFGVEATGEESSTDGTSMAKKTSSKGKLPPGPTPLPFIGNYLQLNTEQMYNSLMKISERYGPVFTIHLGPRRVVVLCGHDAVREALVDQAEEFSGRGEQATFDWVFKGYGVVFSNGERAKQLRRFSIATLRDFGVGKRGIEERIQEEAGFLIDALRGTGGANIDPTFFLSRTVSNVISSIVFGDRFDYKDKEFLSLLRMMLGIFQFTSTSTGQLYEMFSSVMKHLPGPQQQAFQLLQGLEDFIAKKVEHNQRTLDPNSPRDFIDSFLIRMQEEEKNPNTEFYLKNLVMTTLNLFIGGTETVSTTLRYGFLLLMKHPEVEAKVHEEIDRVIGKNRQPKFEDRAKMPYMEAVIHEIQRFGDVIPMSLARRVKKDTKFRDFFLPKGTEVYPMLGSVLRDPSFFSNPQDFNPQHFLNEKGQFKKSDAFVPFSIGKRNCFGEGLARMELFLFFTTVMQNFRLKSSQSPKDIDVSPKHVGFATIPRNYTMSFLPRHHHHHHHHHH

FMND/CYP3A4 [1] = biological target: T3, FMND/CYP3A4 (Homo sapiens, UniProt P08684); conditions: FMND/CYP3A4 compared with CYP3A4
FMND/CYP3A4 [2] = biological target: T3, FMND/CYP3A4; format: biochemical; conditions: hydrocortisone metabolism to 6β-hydroxycortisol, cumene hydroperoxide, FMND/CYP3A4 vs CYP3A4
CYP2D6 = CYP2D6 (Homo sapiens, UniProt P10635); assay: UV-visible spectral ligand binding assay, isolated CYP2D6; conditions: difference spectra
FMND/CYP17A1 = biological target: T4, FMND/CYP17A1 (Homo sapiens, UniProt P05093+P16435); format: binding
T4 sequence (P16435+P05093 with tags, fused parts or gaps): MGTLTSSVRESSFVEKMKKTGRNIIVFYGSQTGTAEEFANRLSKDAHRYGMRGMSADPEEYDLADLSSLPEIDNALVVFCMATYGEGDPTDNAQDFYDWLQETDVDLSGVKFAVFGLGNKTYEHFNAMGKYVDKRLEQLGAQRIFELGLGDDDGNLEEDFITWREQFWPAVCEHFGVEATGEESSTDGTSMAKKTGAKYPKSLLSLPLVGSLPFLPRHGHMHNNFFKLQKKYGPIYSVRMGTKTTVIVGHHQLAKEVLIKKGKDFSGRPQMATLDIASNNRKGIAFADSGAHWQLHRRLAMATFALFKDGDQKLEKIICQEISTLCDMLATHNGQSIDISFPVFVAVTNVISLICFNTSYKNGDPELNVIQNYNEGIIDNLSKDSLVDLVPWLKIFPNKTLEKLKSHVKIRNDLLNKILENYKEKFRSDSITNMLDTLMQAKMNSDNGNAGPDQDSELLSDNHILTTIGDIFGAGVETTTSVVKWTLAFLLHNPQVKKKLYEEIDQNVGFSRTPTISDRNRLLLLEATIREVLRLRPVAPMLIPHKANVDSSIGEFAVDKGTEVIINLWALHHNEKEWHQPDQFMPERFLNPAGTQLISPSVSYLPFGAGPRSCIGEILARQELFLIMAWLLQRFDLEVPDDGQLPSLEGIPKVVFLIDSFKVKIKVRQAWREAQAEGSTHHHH

FMND/CYP21A2 = biological target: T5, FMND/CYP21A2 (Homo sapiens, UniProt P08686+P16435, R103K); format: binding; conditions: FMND/CYP21A2 compared with CYP21A2
T5 sequence (P16435+P08686 with tags, fused parts or gaps P08686:R103K): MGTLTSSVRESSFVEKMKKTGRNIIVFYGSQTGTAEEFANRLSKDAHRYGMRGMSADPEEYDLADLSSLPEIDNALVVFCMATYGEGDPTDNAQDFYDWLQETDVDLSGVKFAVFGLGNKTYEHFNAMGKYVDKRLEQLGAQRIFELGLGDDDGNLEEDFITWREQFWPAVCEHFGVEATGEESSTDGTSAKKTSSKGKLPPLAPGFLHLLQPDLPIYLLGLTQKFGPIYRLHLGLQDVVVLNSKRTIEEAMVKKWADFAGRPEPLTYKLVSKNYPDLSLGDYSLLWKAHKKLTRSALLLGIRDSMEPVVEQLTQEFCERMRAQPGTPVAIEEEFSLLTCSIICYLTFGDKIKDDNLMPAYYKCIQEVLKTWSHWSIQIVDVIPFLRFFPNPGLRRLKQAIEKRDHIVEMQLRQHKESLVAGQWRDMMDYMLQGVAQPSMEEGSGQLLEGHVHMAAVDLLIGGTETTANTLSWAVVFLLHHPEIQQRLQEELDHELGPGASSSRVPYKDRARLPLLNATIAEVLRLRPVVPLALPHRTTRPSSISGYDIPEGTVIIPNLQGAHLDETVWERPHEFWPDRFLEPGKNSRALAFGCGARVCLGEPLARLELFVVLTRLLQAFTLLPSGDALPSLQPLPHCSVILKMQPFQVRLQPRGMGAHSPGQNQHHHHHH

CYP17A1 = biological target: T6, CYP17A1 (Homo sapiens, UniProt P05093); assay: UV-visible spectral ligand binding assay, isolated CYP17A1; conditions: difference spectra
T6 sequence (P05093 with tags, fused parts or gaps): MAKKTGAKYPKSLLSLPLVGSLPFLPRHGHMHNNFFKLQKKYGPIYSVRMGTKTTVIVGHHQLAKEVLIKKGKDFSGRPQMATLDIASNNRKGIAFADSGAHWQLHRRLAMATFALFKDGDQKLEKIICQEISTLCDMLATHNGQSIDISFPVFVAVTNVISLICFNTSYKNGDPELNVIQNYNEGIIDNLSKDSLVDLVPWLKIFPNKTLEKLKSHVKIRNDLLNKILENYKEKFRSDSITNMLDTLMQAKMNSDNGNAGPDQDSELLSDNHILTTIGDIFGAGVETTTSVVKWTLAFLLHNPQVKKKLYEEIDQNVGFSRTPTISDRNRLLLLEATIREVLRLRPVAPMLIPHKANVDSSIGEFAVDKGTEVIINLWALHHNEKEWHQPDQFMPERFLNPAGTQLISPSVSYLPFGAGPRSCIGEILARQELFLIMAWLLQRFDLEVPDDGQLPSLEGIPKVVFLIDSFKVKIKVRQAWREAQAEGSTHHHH

[3] = FMND/CYP2D6 compared with CYP2D6
[4] = FMND/CYP2A6 compared with CYP2A6
[5] = FMND/CYP17A1 compared with CYP17A1

CC[C@@H]1C(=O)OC[C@@H]1Cc1cncn1C [pilocarpine]
increase in affinity by FMN domain fusion (FMND/CYP2D6; [3]): 37% | increase in ΔAmax/Kd binding efficiency by FMN domain fusion (FMND/CYP2D6; [3]): 32% | reduction in total binding at saturation by FMN domain fusion (FMND/CYP2D6; [3]): 17% | spectral shift (binding mode) (CYP2A6): type II | change in the affinity by FMN domain fusion, in words (FMND/CYP2A6; [4]): no change | decrease in total binding (ΔAmax) by FMN domain fusion (FMND/CYP2A6; [4]): 30% | spectral shift (binding mode) (FMND/CYP2A6; difference spectra, FMND/CYP2A6 fusion, FMN domain oxidized): type II

C[C@]12CCC(=O)C=C1CC[C@@H]1[C@@H]2[C@@H](O)C[C@@]2(C)[C@H]1CC[C@]2(O)C(=O)CO [hydrocortisone]
reduction in the Kd value by FMND fusion (FMND/CYP3A4 [1]): 30% | reduction in total binding / final saturation (ΔAmax) by FMND fusion (FMND/CYP3A4 [1]): 33% | decrease in Km by addition of the FMN domain (FMND/CYP3A4 [2]): ~30% | decrease in kcat by addition of the FMN domain (FMND/CYP3A4 [2]): ~21%

CC1(C)SCCN(S(=O)(=O)c2ccc(Oc3ccncc3)cc2)[C@H]1C(=O)NO [prinomastat]
spectral shift (binding mode) (FMND/CYP2D6; difference spectra, FMND/CYP2D6 fusion, FMN domain oxidized): type II | spectral shift (binding mode) (CYP2D6): type II

CC(=O)N1CCN(c2ccc(OCC3COC(Cn4ccnc4)(c4ccc(Cl)cc4Cl)O3)cc2)CC1 (centres unmarked) [ketoconazole]
effect of FMN domain fusion on saturation (ΔAmax), in words (FMND/CYP17A1; [5]): no significant changes; also recorded: essentially no effect | decrease in total / maximal absorbance change (ΔAmax) by FMN domain fusion (FMND/CYP21A2): ~30% | increase in the dissociation constant by FMN domain fusion (FMND/CYP21A2): 31%

CC(=O)[C@H]1CC[C@H]2[C@@H]3CC=C4C[C@@H](O)CC[C@]4(C)[C@H]3CC[C@]12C [pregnenolone]
effect of FMN domain fusion on binding efficiency, in words (FMND/CYP17A1; [5]): largely unchanged | effect of FMN domain fusion on saturation (ΔAmax), in words (FMND/CYP17A1; [5]): increased | spectral shift (binding mode) (FMND/CYP17A1; difference spectra, FMND/CYP17A1 fusion, FMN domain oxidized): type I | spectral shift (binding mode) (CYP17A1): type I
